Measurements taken from US10258701B2, “Labeled evans blue dye derivative for in vivo serum albumin labeling” (The United States of America, as represented by the …, priority 2015, dated 2019).

How the values were obtained:
[1] = Multiple time point whole-body PET in healthy volunteers (SUV); type: in vivo, human
Protocol: (§1) This clinical study was approved by the Institute Review Board of Peking Union Medical College Hospital, Chinese Academy of Medical Sciences and Peking Union Medical College. Three healthy volunteers (2 males and 1 female) were enrolled with written informed consent to validate the safety of ^68Ga-NEB. No fasting, hydration or other specific preparation was requested on the day of imaging. Any unusual or adverse clinical symptoms were recorded on the day of imaging and during the 2-week follow-up period.
All three healthy volunteers underwent whole-body PET acquisitions (Biograph mCT PET/CT system, Siemens) at multiple time points after tracer injection. After the whole-body low-dose CT scan (140 kV, 35 mA, pitch 1:1, layer 5 mm, layer spacing 3 mm, matrix 512×512, FOV 70 cm), 111-148 MBq (3-4 mCi) of ^68Ga-NEB was injected intravenously. The whole body (from the top of skull to the middle of femur) of each volunteer was covered by 7 bed positions. The acquisition duration was 40 sec/bed position for the 5 min, 10 min and 15 min time points, 2 min/bed position for the 30 min, 45 min, 60 min, 75 min and 90 min time points.
(§2) A Siemens MMWP workstation was used for post-processing. Visual analysis was used to determine the general biodistribution and the temporal and inter-subject stability. The volume of interest (VOI) of 12 normal organs/tissues and concerned lesions were drawn on the serial images. The radioactivity concentration and standardized uptake value (SUV) in the VOIs were obtained through the software. Organ dosimetry was calculated by using organ-level internal dose assessment software. All quantitative data were expressed as mean±standard deviation.
From 5 to 90 min, no dramatic distribution change was observed, confirming the in vivo stability and long blood pool retention of ^68Ga-NEB (FIG. 28). Increased bladder accumulation was observed over time.

[2] = human, in vivo
Source text: (§3) Dosimetry study confirmed the safety with acceptable absorbed doses by critical organs even with multiple injections for one patient.
as §2
The mean absorbed radiation doses based on multiple time point PET imaging of three volunteers were similar to those based on mouse biodistribution data. The major organs that received relatively high doses were kidneys, liver, spleen, and heart wall. The bladder wall also received high exposure due to renal excretion of the radioactivity (0.0683±0.0090 mSv/MBq). The whole body absorbed dose was 0.0151±0.0001 mSv/MBq with an effective dose of 0.0179±0.0003 mSv/MBq.

[3] = Ex vivo biodistribution in Balb/C mice with absorbed doses extrapolated to adult human male (OLINDA/EXM); details: mouse
Protocol: For ex vivo biodistribution and dosimetry evaluation, each BALB/C mouse was injected with 1.85 MBq of ^68Ga-NEB. At different time points after tracer injection (5 min, 30 min, 1 h, 3 h and 6 h, n=5/time point), the mice were sacrificed for tissue and organ collection, including blood, muscle, bone, liver, kidneys, spleen, pancreas, stomach, intestine, heart and lung. The samples were wet weighed, and measured for radioactivity in a γ-counter (Wallac 1470-002, Perkin-Elmer). The results were presented as percentage injected dose per gram of tissue (% ID/g). For each mouse, the radioactivity of the tissue samples was calibrated against a known aliquot of the injected tracer and normalized to a mean body mass of each group. Values were expressed as mean±SD (n=5/group). Determination of organ doses for a reference human was made using the OLINDA/EXM program (Vanderbilt University, Nashville, Tenn.).
In order to estimate the safe dose for clinical use, an ex vivo biodistribution study was performed in normal Balb/C mice. Absorbed doses for major organs and whole body were then extrapolated to adult human male of a body weight of 73.7 Kg using OLINDA EXM software. The kidneys received the highest absorbed doses (mean absorbed dose, 0.104˜0.135 mSv/MBq), resulting from abundant blood supply and tracer excretion through the renal urinary tract. The mean effective dose of ^68Ga-NEB was 0.0151 to 0.0159 mSv/MBq. With an injected dose of 185 MBq (5 mCi), the patient would be exposed to an effective radiation dose of 2.94 mSv, which is much lower than the dose limit of 20 mSv for the second risk category defined by the 2007 International Commission on Radiological Protection.

[4] = Safety observation in healthy volunteers and patients; type: in vivo, human
Source text: as §3, §1
Vessel branches in and out of major organs and limbs can also be clearly identified.

Q: Which results are given for `Cc1cc(-c2ccc(NC(=O)CN3CCN4CCN(CC3)CC(=O)[O][68GaH][O]C(=O)C4)c(C)c2)ccc1N=Nc1ccc2c(S(=O)(=O)O)cc(S(=O)(=O)O)c(N)c2c1O` [^68Ga-NEB]?
A: average standardized uptake value, Blood ([1]; 5 min after i.v.): 7.97 ± 0.15; average standardized uptake value, Bone ([1]; 5 min after i.v.): 2.10 ± 0.26; average standardized uptake value, Kidneys ([1]; 5 min after i.v.): 4.40 ± 0.26; average standardized uptake value, Liver ([1]; 5 min after i.v.): 3.80 ± 0.44; average standardized uptake value, Lung ([1]; 5 min after i.v.): 1.53 ± 0.15; average standardized uptake value, Muscle ([1]; 5 min after i.v.): 0.53 ± 0.21; average standardized uptake value, Pancreas ([1]; 5 min after i.v.): 2.13 ± 0.40; average standardized uptake value, S. Intestine ([1]; 5 min after i.v.): 1.73 ± 0.25; average standardized uptake value, Spleen ([1]; 5 min after i.v.): 4.10 ± 0.36; average standardized uptake value, Stomach ([1]; 5 min after i.v.): 1.23 ± 0.15; average standardized uptake value, Blood ([1]; 10 min after i.v.): 7.53 ± 0.25; average standardized uptake value, Bone ([1]; 10 min after i.v.): 1.93 ± 0.12; average standardized uptake value, Kidneys ([1]; 10 min after i.v.): 4.23 ± 0.49; average standardized uptake value, Liver ([1]; 10 min after i.v.): 3.70 ± 0.61; average standardized uptake value, Lung ([1]; 10 min after i.v.): 1.47 ± 0.29; average standardized uptake value, Muscle ([1]; 10 min after i.v.): 0.60 ± 0.10; average standardized uptake value, Pancreas ([1]; 10 min after i.v.): 2.03 ± 0.15; average standardized uptake value, S. Intestine ([1]; 10 min after i.v.): 1.57 ± 0.12; average standardized uptake value, Spleen ([1]; 10 min after i.v.): 4.07 ± 0.47; average standardized uptake value, Stomach ([1]; 10 min after i.v.): 1.50 ± 0.20; average standardized uptake value, Blood ([1]; 15 min after i.v.): 7.17 ± 0.35; average standardized uptake value, Bone ([1]; 15 min after i.v.): 1.83 ± 0.15; average standardized uptake value, Kidneys ([1]; 15 min after i.v.): 4.03 ± 0.50; average standardized uptake value, Liver ([1]; 15 min after i.v.): 3.73 ± 0.59; average standardized uptake value, Lung ([1]; 15 min after i.v.): 1.4 ± 0.17; average standardized uptake value, Muscle ([1]; 15 min after i.v.): 0.60 ± 0.17; average standardized uptake value, Pancreas ([1]; 15 min after i.v.): 1.90 ± 0.26; average standardized uptake value, S. Intestine ([1]; 15 min after i.v.): 1.73 ± 0.12; average standardized uptake value, Spleen ([1]; 15 min after i.v.): 4.00 ± 0.52; average standardized uptake value, Stomach ([1]; 15 min after i.v.): 1.23 ± 0.12; average standardized uptake value, Blood ([1]; 30 min after i.v.): 6.93 ± 0.21; average standardized uptake value, Bone ([1]; 30 min after i.v.): 1.67 ± 0.15; average standardized uptake value, Kidneys ([1]; 30 min after i.v.): 3.77 ± 0.29; average standardized uptake value, Liver ([1]; 30 min after i.v.): 3.57 ± 0.46; average standardized uptake value, Lung ([1]; 30 min after i.v.): 1.30 ± 0.17; average standardized uptake value, Muscle ([1]; 30 min after i.v.): 0.57 ± 0.12; average standardized uptake value, Pancreas ([1]; 30 min after i.v.): 1.67 ± 0.15; average standardized uptake value, S. Intestine ([1]; 30 min after i.v.): 1.63 ± 0.15; average standardized uptake value, Spleen ([1]; 30 min after i.v.): 3.90 ± 0.61; average standardized uptake value, Stomach ([1]; 30 min after i.v.): 1.23 ± 0.06; average standardized uptake value, Blood ([1]; 45 min after i.v.): 6.70 ± 0.26; average standardized uptake value, Bone ([1]; 45 min after i.v.): 1.50 ± 0.20; average standardized uptake value, Kidneys ([1]; 45 min after i.v.): 3.87 ± 0.32; average standardized uptake value, Liver ([1]; 45 min after i.v.): 3.50 ± 0.52; average standardized uptake value, Lung ([1]; 45 min after i.v.): 1.30 ± 0.20; average standardized uptake value, Muscle ([1]; 45 min after i.v.): 0.53 ± 0.06; average standardized uptake value, Pancreas ([1]; 45 min after i.v.): 1.67 ± 0.15; average standardized uptake value, S. Intestine ([1]; 45 min after i.v.): 1.63 ± 0.06; average standardized uptake value, Spleen ([1]; 45 min after i.v.): 3.77 ± 0.57; average standardized uptake value, Stomach ([1]; 45 min after i.v.): 1.23 ± 0.06; average standardized uptake value, Blood ([1]; 60 min after i.v.): 6.20 ± 0.17; average standardized uptake value, Bone ([1]; 60 min after i.v.): 1.37 ± 0.06; average standardized uptake value, Kidneys ([1]; 60 min after i.v.): 3.60 ± 0.10; average standardized uptake value, Liver ([1]; 60 min after i.v.): 3.47 ± 0.47; average standardized uptake value, Lung ([1]; 60 min after i.v.): 1.23 ± 0.06; average standardized uptake value, Muscle ([1]; 60 min after i.v.): 0.50 ± 0.00; average standardized uptake value, Pancreas ([1]; 60 min after i.v.): 1.43 ± 0.15; average standardized uptake value, S. Intestine ([1]; 60 min after i.v.): 1.47 ± 0.15; average standardized uptake value, Spleen ([1]; 60 min after i.v.): 3.73 ± 0.42; average standardized uptake value, Stomach ([1]; 60 min after i.v.): 1.10 ± 0.00; average standardized uptake value, Blood ([1]; 75 min after i.v.): 6.03 ± 0.12; average standardized uptake value, Bone ([1]; 75 min after i.v.): 1.27 ± 0.12; average standardized uptake value, Kidneys ([1]; 75 min after i.v.): 3.43 ± 0.15; average standardized uptake value, Liver ([1]; 75 min after i.v.): 3.43 ± 0.49; average standardized uptake value, Lung ([1]; 75 min after i.v.): 1.10 ± 0.17; average standardized uptake value, Muscle ([1]; 75 min after i.v.): 0.47 ± 0.06; average standardized uptake value, Pancreas ([1]; 75 min after i.v.): 1.37 ± 0.21; average standardized uptake value, S. Intestine ([1]; 75 min after i.v.): 1.33 ± 0.21; average standardized uptake value, Spleen ([1]; 75 min after i.v.): 4.93 ± 2.10; average standardized uptake value, Stomach ([1]; 75 min after i.v.): 1.07 ± 0.12; average standardized uptake value, Blood ([1]; 90 min after i.v.): 5.97 ± 0.15; average standardized uptake value, Bone ([1]; 90 min after i.v.): 1.23 ± 0.15; average standardized uptake value, Kidneys ([1]; 90 min after i.v.): 3.30 ± 0.20; average standardized uptake value, Liver ([1]; 90 min after i.v.): 3.33 ± 0.58; average standardized uptake value, Lung ([1]; 90 min after i.v.): 1.07 ± 0.12; average standardized uptake value, Muscle ([1]; 90 min after i.v.): 0.77 ± 0.64; average standardized uptake value, Pancreas ([1]; 90 min after i.v.): 1.37 ± 0.31; average standardized uptake value, S. Intestine ([1]; 90 min after i.v.): 1.17 ± 0.32; average standardized uptake value, Spleen ([1]; 90 min after i.v.): 3.57 ± 0.55; average standardized uptake value, Stomach ([1]; 90 min after i.v.): 1.03 ± 0.15; crossing of the blood-brain barrier ([1]; PET, normal brain tissue negligible accumulation): does not cross the blood-brain barrier; effective dose [2]: 0.0179±0.0003 mSv/MBq; mean absorbed radiation dose, bladder wall [2]: 0.0683±0.0090 mSv/MBq; radiation dose a patient would be exposed to [2]: 2.65 mSv; whole body absorbed dose [2]: 0.0151±0.0001 mSv/MBq; Absorbed Dose, Adrenals ([3]; BALB/c): 0.0137~0.0141 mSv/MBq; Absorbed Dose, Breasts ([3]; BALB/c): 0.00881~0.01 mSv/MBq; Absorbed Dose, Gallbladder Wall ([3]; BALB/c): 0.0147~0.0149 mSv/MBq; Absorbed Dose, Heart Wall ([3]; BALB/c): 0.0329~0.0453 mSv/MBq; Absorbed Dose, LLI Wall ([3]; BALB/c): 0.0104~0.0119 mSv/MBq; Absorbed Dose, Liver ([3]; BALB/c): 0.0444~0.0575 mSv/MBq; Absorbed Dose, Lungs ([3]; BALB/c): 0.0197~0.0236 mSv/MBq; Absorbed Dose, Muscle ([3]; BALB/c): 0.00946~0.011 mSv/MBq; Absorbed Dose, Osteogenic Cells ([3]; BALB/c): 0.0133~0.0153 mSv/MBq; Absorbed Dose, Ovaries ([3]; BALB/c): 0.0108~0.0122 mSv/MBq; Absorbed Dose, Pancreas ([3]; BALB/c): 0.0625~0.0821 mSv/MBq; Absorbed Dose, Red Marrow ([3]; BALB/c): 0.00882~0.00973 mSv/MBq; Absorbed Dose, Skin ([3]; BALB/c): 0.00804~0.00925 mSv/MBq; Absorbed Dose, Small Intestine ([3]; BALB/c): 0.0114~0.0128 mSv/MBq; Absorbed Dose, Spleen ([3]; BALB/c): 0.0263~0.0317 mSv/MBq; Absorbed Dose, Stomach Wall ([3]; BALB/c): 0.0117~0.0127 mSv/MBq; Absorbed Dose, Testes ([3]; BALB/c): 0.00896~0.0103 mSv/MBq; Absorbed Dose, Thymus ([3]; BALB/c): 0.0101~0.0112 mSv/MBq; Absorbed Dose, Thyroid ([3]; BALB/c): 0.00936~0.0107 mSv/MBq; Absorbed Dose, Total Body ([3]; BALB/c): 0.0146~0.0146 mSv/MBq; Absorbed Dose, ULI Wall ([3]; BALB/c): 0.0115~0.0128 mSv/MBq; Absorbed Dose, Urinary Bladder Wall ([3]; BALB/c): 0.0102~0.0117 mSv/MBq; Absorbed Dose, Uterus ([3]; BALB/c): 0.0108~0.0123 mSv/MBq; Effective Dose Equivalent ([3]; BALB/c): 0.0251~0.0297 mSv/MBq; effective radiation dose to the patient [3]: 2.94 mSv; reported discomfort, adverse clinical events, toxicity, allergies ([4]; all healthy volunteers and patients): no discomfort or adverse clinical events, no elicited toxicity, and no allergies; adverse symptoms during the entire procedure and 2 weeks follow-up ([4]; healthy volunteers, mean injected dose 3.77±0.28 mCi): no adverse symptoms were noticed and/or reported
